Usually GI50 stands for the concentration that inhibits growth by half. What is called IC50 is the concentration needed to halve the response being measured.

The results in this text go back to patent US12582639B2, “Preventive, relief or therapeutic use of 2,3,5-substituted thiophene compound against gastrointestinal stromal tumor” (PHAROS IBIO CO., LTD, priority 2020, dated 2026).

Assay [1] deals with c-kit D816V Ba/F3 cell line xenograft mouse model. In words: Survival time of c-kit D816V Ba/F3 cell line xenograft mouse model. It counts as in vivo. To be noted: oral, daily. As to the method: As mice, 6-8-week-old NOD SCID female mice (18 to 22 g) (GemPharmatech Co., Ltd.) were prepared. Mice were acclimatized for 7 days before use in the experiment, and mice with abnormal health were excluded from the experiment. Mice were bred in a cage (300×180×150 mm) at a 22±3° C. and a relative humidity of 40% to 70% with a 12-hr light/12-hr dark cycle. Mice were allowed access to sterilized dry granular food (Beijing Keaoxieli Feed Co., Ltd., Beijing, China) and water ad libitum for the entire experimental period except for the period specified in the protocol.
50 ml of c-kit D816V mutant Ba/F3 cells suspension cultured in a 75 T flask were placed in a conical tube and centrifuged at 800 rpm for 2 minutes, centrifuged with DPBS (Dulbecco's Phosphate-Buffered Saline, Welgene) at 800 rpm for 2 minutes, washed, and then suspended in RPMI1640 (Welgene) without antibiotics and fetal bovine serum (FBS). Thereafter, the cells were stained with trypan blue and counted with a hemocytometer. […]
Specifically, while the presence or absence of abnormalities in the mouse model of Example 3-1 was monitored daily by checking the skin condition, bleeding and stool status, whether the body weight changed was checked by measuring the mouse weight at intervals of 3 days after the start of oral administration of each drug. […]

A further assay deals with Parental Ba/F3 cell line. The assay can be described thus: Growth inhibition of parental Ba/F3 cell line (Celltiter glo). The format is cell-based. The note with it: Mus musculus, BaF3; Parental Ba/F3, 72 hours. For orientation: In ATP-based viability assays light output follows the ATP content of the culture.
Assay [2] concerns GIST-T1 cell line. The assay can be described thus: Growth inhibition of gastrointestinal stromal tumor cell line GIST-T1 (Celltiter glo). It counts as cell-based. The note with it: Homo sapiens, GISTT1; for GI50: GIST-T1, 72 hours. Here is the method: Specifically, 100 μl of the GIST-T1 cell line was added to each well of a 96-well plate at a concentration of 5,000 cells/100 μl. After 24 hours of stabilization, 100 μl of the GIST-T1 cell line was treated with 0.5 μl of each of control compounds and PHI-101 (⅓ serial dilution, 10 points) to a final concentration of up to 50 μM, and cultured at 37° C. under 5% CO2 for 72 hours. As the control compounds, imatinib, dasatinib, sunitinib and ponatinib, which are c-kit inhibitors, were used. After culture, the cells were counted using a Celltiter glo assay kit (Promega), and the 50% growth inhibition values (GI50, μM) of the control compounds and PHI-101 were measured.

Assay [3] relates to c-kit D816V mutant Ba/F3 cell line. The assay can be described thus: Cell cycle FACS assay. The format is cell-based. To be noted: 1 μM, 24 hours. Here is the method: The c-kit D816V mutant Ba/F3 cell line was treated with 1 μM of PHI-101, and then the SubG1/GO-1 population was analyzed by cell cycle FACS assay.
Specifically, the c-kit D816V mutant Ba/F3 cell line was adjusted to a concentration of 1×10^6 cells/ml and treated with each of PHI-101 and the control compound sunitinib at a concentration of 1 μM for 24 hours. Thereafter, the medium was removed, and the c-kit D816V mutant Ba/F3 cell line was fixed in 70% ethanol at 4° C. for 24 hours, and then incubated in a PBS buffer solution containing 40 μg/ml of propidium iodide (PI) and 100 μg/ml of RNase for 30 minutes to completely stain the total DNA. Cell cycle analysis of the stained cells was performed using a flow cytometer (FACS-C6, BD). The proportion of cells in G0/G1 phase, S phase and G2/M phase was measured, and based on the measurement results, the SubG1/GO-1 population was determined.
In general terms: A flow cytometer gives signals particle by particle.

In assay [4] the test system is c-kit D816V Ba/F3 cell line. The assay can be described thus: Growth inhibition of c-kit D816V mutant Ba/F3 cell line (Celltiter glo). The note with it: for GI50: Mus musculus, BaF3, cKIT D816V Ba/F3, 72 hours. The format is cell-based. Here is the method: Specifically, 100 μl of a Ba/F3 cell line with a c-kit D816V mutation (FIG. 1) was added to each well of a 96-well plate at a concentration of 10,000 cells/100 μl. After 4 hours, 100 μl of the Ba/F3 cell line was treated with 0.5 μl of each of control compounds and PHI-101 (10-point 1:3 serial dilutions) to a final concentration of up to 50 μM, and cultured at 37° C. under 5% CO2 for 72 hours. As the control compounds, imatinib and sunitinib which are c-kit inhibitors were used. After culture, the cells were counted using a Celltiter glo assay kit (Promega), and the 50% growth inhibition values (GI50, μM) of the control compounds and PHI-101 were measured.

The subject of assay [5] is c-kit phosphorylation and downstream signaling (p-STAT3, p-ERK1/2) in c-kit D816V mutant Ba/F3 cell line. In words: Inhibition of c-kit phosphorylation and downstream signaling in c-kit D816V Ba/F3 cells (Western blot). The format is cell-based. To be noted: 0.1, 1 and 10 μM, 2 hours; controls sunitinib and dasatinib. Here is the method: The inhibitory activities of the control compound and PHI-101 against c-kit phosphorylation and downstream signaling (p-STAT3, p-ERK1/2) in the c-kit D816V mutant Ba/F3 cell line were measured, and as control compounds, sunitinib and dasatinib were used.
(§1) Specifically, the c-kit D816V mutant Ba/F3 cell line was dispensed at a density of 1×10^6 cells/ml, treated with each of the control compounds and PHI-101 at concentrations of 0.1, 1 and 10 μM, and then cultured for 2 hours. Lysates of the cells were obtained using lysis buffer (50 mM Tris-HCl pH7.5, 1% NP40, 1 mM EDTA, 150 mM NaCl, 5 mM, Na3VO4 and 2.5 mM NaF, and a protease inhibitor cocktail). Equal amounts of the cell lysates were electrophoresed using 8% SDS-PAGE gel at 100 V for 1 hour and 30 minutes, and the separated protein was electrically transferred to nitrocellulose membranes. The membranes were blocked with 5% skim milk at room temperature for 30 minutes, and allowed to react with primary antibodies (diluted 1:5,000), including p-c-kit tyrosine 719 (Y719), p-STAT3 tyrosine 705 (Y705) and p-ERK1/2 threonine 202/tyrosine 204 (T202/Y204) at 4° C. for 16 to 20 hours. […] Next, the membranes were washed three times with TBST for 5 minutes each time and treated with a chemiluminescent substrate reagent, and the expression level of the protein was measured by detecting luminescence with an X-ray film in the dark.
(In general: In western blotting, separated proteins are transferred to a membrane and probed.)

Assay [6] has as its system GIST-T1 cell line. The assay can be described thus: Apoptotic effect, cleaved PARP Western blot in GIST-T1. It counts as cell-based, human. To be noted: 0.01, 0.1 and 1 μM, 24 hours. As to the method: as §1, with “membranes.” for “membranes. The membranes were blocked with 5% skim milk at room temperature for 30 minutes, and allowed to react with primary antibodies (diluted 1:5,000), including p-c-kit tyrosine 719 (Y719), p-STAT3 tyrosine 705 (Y705) and p-ERK1/2 threonine 202/tyrosine 204 (T202/Y204) at 4° C. for 16 to 20 hours.”
A gastrointestinal stromal tumor cell line was treated with PHI-101, and the level of cleaved PARP, an apoptosis marker, was analyzed. […]
Specifically, the apoptotic effect of PHI-101 against the GIST-T1 cell line was analyzed in the same manner as in Example 1-2, except that the GIST-T1 cell line was treated with each of the control compounds at a concentration of 1 μM and PHI-101 at concentrations of 0.01, 0.1 and 1 μM for 24 hours, and that cleaved PARP diluted at 1:3,000 was used as a primary antibody.

In assay [7] the test system is c-kit phosphorylation and downstream signaling (p-AKT, p-ERK1/2, p-S6) in GIST-T1 cell line. In words: Inhibition of c-kit phosphorylation and downstream signaling in GIST-T1 cells (Western blot). The note with it: 0.01, 0.1 and 1 μM. It counts as cell-based, human.
Assay [8] concerns c-kit D816V mutant Ba/F3 cell line. In words: Apoptotic effect, Annexin V-PI FACS analysis. To be noted: 24 hours. It counts as cell-based. As to the method: Specifically, the c-kit D816V mutant Ba/F3 cell line was adjusted to a concentration of 1×10^6 cells/ml and treated with each of PHI-101 at concentrations of 0.1, 1 and 10 μM and the control compound sunitinib at concentrations of 1 and 10 μM for 24 hours. Thereafter, the medium was removed and the cells were washed once with 1 ml PBS. The PBS was removed by centrifugation at 1,000 rpm for 5 minutes. The cells were dissolved in 100 μl of PBS containing Ca^2+ and Mg^2+ and allowed to react with 5 μl of Annexin V for 20 minutes. After completion of the reaction, 400 μl of PBS containing Ca^2+ and Mg^2+ was added, and 5 μl of propidium iodide (PI) was added, and then the degree of apoptotic cell death was analyzed by FACS (fluorescence activated cell sorter) assay using a flow cytometer (FACS-C6, BD).

`NC(=O)Nc1cc(C#Cc2cccc(F)c2)sc1C(=O)N[C@H]1CCCNC1` [PHI-101, (S)-5-((3-fluorophenyl)ethynyl)-N-(piperidin-3-yl)-3-ureidothiophene-2-carboxamide]: the “prolongation of survival time compared to vehicle-administered group” value in [1] (7 mg/kg) turned out to be 3 days. Besides, the “survival time compared to vehicle-administered group” value in assay [1] (80 mg/kg) is “doubled”. Moreover, the GI50 in the assay on Parental Ba/F3 cell line was determined as 5010 nM; in the assay on GIST-T1 cell line [2], 36 nM; in assay [4] it was 912 nM. Moreover, the IC50 with GIST-T1 cell line [2] (GIST-T1 proliferation, read-out: IC50 value in GIST-T1 cells) came out at 36 nM. In addition, the SubG1/GO-1 population result in assay [3] was “increased”. Also, in [4] (controls imatinib and sunitinib), the “inhibitory activity against the c-kit D816V Ba/F3 mutant cell line compared with control compounds” value is on record as “higher inhibitory activity against the c-kit D816V Ba/F3 mutant cell line than the control compounds”. Also, the “selectivity for c-kit D816V Ba/F3 mutant cell line versus parental Ba/F3 cell line” value in assay [4] (from GI50 values of Table 1) is on record as “higher selectivity for the c-kit D816V Ba/F3 mutant cell line than for the parental Ba/F3 cell line”. In addition, the “inhibitory activity against p-c-kit (Y719) phosphorylation” value in [5] is listed as “higher inhibitory activity against p-c-kit (Y719) phosphorylation than the control compounds”. For the same molecule, the “level of cleaved PARP (apoptosis marker)” value with GIST-T1 cell line [6] is reported as “increased in a manner dependent on the concentration of PHI-101”. Also, the “c-kit phosphorylation and downstream signaling” value in assay [7] was “decreased c-kit phosphorylation and downstream signaling in a concentration-dependent manner”. Moreover, the induction of apoptosis entry in assay [8] (0.1 μM) is “strongly induced apoptosis”. In assay [8] (0.1, 1 and 10 μM), the “apoptosis, concentration dependence” value was “apoptosis increased in a concentration-dependent manner”.

Take `Cc1ccc(NC(=O)c2ccc(CN3CCN(C)CC3)cc2)cc1Nc1nccc(-c2cccnc2)n1` [Imatinib, imatinib]: the GI50 with Parental Ba/F3 cell line turned out to be 12700 nM; in the assay on GIST-T1 cell line [2], 64 nM; in [4], 11500 nM.

Take `CCN(CC)CCNC(=O)c1c(C)[nH]c(/C=C2\C(=O)Nc3ccc(F)cc32)c1C` [Sunitinib, sunitinib]: the figures for the GI50 (in the assay with Parental Ba/F3 cell line; in the assay with GIST-T1 cell line [2]; in assay [4]) were 13300 nM, 26 nM and 2650 nM, respectively.

In the assay with GIST-T1 cell line [2], `Cc1nc(Nc2ncc(C(=O)Nc3c(C)cccc3Cl)s2)cc(N2CCN(CCO)CC2)n1` [Dasatinib, dasatinib] gave a GI50 of 73 nM.
